PMC4979516, “Quinazoline-based tricyclic compounds that regulate programmed cell death, induce neuronal differentiation, and are curative in animal models for excitotoxicity and hereditary brain disease” (Cell Death Discovery, 2015)

System: NeuN expression in PC12 cells strain #3
Assay: Western blot of NeuN in PC12 strain #3
Format: cell-based, rat
Conditions: PC12 strain #3, versus vehicle control
Method: The relative protein levels of TSPO and other proteins related to neurodifferentiation (including β-actin, NeuN, tubulin-3β), were assayed by immunoblotting with the aid electrophoresis through 12% SDS-polyacrylamide gel, according to previously described methods.[71] A priori, general protein levels were measured by the method of Bradford using BSA as a standard.[75] After electrophoresis, the gels were subjected to electrophoretic transfer to nitrocellulose membranes. Then, the membranes were blocked for 1 h in 5% non-fat milk in 62.5 mM sodium phosphate buffer, pH 7.4, containing 100 mM NaCl, and 0.1% (v/v) Tween-20 (PBS-T) and then incubated for 2 h or overnight at 4 °C with the appropriate antibodies: anti-tubulin-3β 1 : 10 000, anti-NeuN 1 : 1000, anti β-actin 1 : 15 000, and anti-TSPO 1 : 10 000.[73] After washing with TBS-T, the membranes were incubated with IgG secondary antibody linked to horseradish peroxidase (anti-rabbit IgG 1 : 20 000, anti-mouse IgG 1 : 10 000, as appropriate, from Jackson Immunologicals, West Grove, PA, USA) in TBS-T at room temperature. Binding of antibodies to the membrane was detected with the EZ-ECL-detection reagent (Biological Industries), using the ImageQuant LAS 4010 apparatus and Totallab Quant quantitative image analysis of Totallab (Newcastle upon Tyne, England).

CN(C)C(=O)Oc1nc(-c2ccccc2)nc2ccccc12 [MGV-1, 2-phenylquinazolin-4-yl dimethylcarbamate]
Increase of NeuN expression (western blot): do not enhance NeuN expression significantly
